Biological target: PAD2 (peptidylarginine deiminase 2) (Homo sapiens, UniProt Q9Y2J8)
Format: biochemical

Chain of PAD2 (peptidylarginine deiminase 2) (Q9Y2J8 whole entry): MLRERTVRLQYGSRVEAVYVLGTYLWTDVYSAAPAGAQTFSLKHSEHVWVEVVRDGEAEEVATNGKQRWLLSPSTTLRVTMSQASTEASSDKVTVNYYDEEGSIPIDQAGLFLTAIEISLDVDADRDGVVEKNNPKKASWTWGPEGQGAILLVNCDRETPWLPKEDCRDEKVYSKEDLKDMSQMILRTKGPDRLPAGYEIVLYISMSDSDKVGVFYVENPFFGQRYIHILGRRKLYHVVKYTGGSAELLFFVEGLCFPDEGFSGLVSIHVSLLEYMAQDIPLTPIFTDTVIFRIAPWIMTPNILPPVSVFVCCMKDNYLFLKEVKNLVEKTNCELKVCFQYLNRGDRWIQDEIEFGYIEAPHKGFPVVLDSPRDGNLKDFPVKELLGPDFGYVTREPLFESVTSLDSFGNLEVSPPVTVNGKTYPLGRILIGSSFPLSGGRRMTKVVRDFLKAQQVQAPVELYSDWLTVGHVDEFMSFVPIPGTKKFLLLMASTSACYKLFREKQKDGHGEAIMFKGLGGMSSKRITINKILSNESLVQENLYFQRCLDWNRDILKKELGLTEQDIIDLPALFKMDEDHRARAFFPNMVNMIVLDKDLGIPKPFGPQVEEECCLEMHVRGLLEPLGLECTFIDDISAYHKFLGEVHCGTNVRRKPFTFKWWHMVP

IC50: 14.4 mM
Structure (SMILES): N=C(N)CCl [2CA, 2-chloroacetamidine]
